Results on seven compounds are retold here after patent US7919133B2, “Substituted cyclopropanecarboxylic acid (3-methyl-cyclohexyl)amide as flavoring substance” (SYMRISE GmbH & Co. KG, priority 2007, dated 2011).

For assay [1] the following is noted: among substituted benzoic amides of WO 2006/099762; cited from earlier work.
A short description of assay [2]: Tasting in the applicant's own investigations. To be noted: for Umami-properties: in vivo. Format: in vivo.
Assay [3] can be described thus: Panel tasting in 0.5% American beef extract / beef broth as base (FIG. 1, scores 0 to 6). Format: in vivo. An excerpt:
In spider diagram attached as FIG. 1, American beef broth is exemplarily compared as a base, with firstly such a base with an addition of 5 ppm of mixture of cyclopropanecarboxylic acid-((1S,2S,5R)-2-isopropyl-5-methyl-cyclohexyl)-amide (11) and Cyclopropanecarboxylic acid-((1R,2R,5S)-2-isopropyl-5-methyl-cyclohexyl)-amide (12) (mixing ratio of 1:1) and secondly with such a base with an addition of 0.05 wt.-% of MSG.
With the aid of tasting by a panel of trained subjects, the taste of a 0.5% American beef extract as base (light grey line) was compared with the taste of firstly, such a base, to which 5 ppm of mixture consisting of cyclopropanecarboxylic acid-((1S,2S,5R)-2-isopropyl-5-methyl-cyclohexyl)amide (11) and cyclopropanecarboxylic acid-((1R,2R,5S)-2-isopropyl-5-methyl-cyclohexyl)amide (12) was added (solid line), and secondly such a base, to which 0.05 wt.-% of MSG was added (broken line).
The subjects rated the strength of the stated trend of taste by ranking of scores on a scale from 0 (no corresponding taste) to 6 (very strong corresponding taste). The average values of respective scores are illustrated.

The conditions of assay [4]: as given in US 2004/0202760 and US 2004/0202619; cited from earlier work.

Consider `COC(=O)c1ccc(C(=O)NC2CC(C)CCC2C(C)C)cc1` (centres unmarked), for which the cooling effect result in assay [1] is reported as “strongest ascertained cooling effect”.
Turning to `CC(C)[C@@H]1CC[C@@H](C)C[C@@H]1NC(=O)C1CC1` [(11), Cyclopropanecarboxylic acid-((1S,2S,5R)-2-isopropyl-5-methyl-cyclohexyl)amide], the Umami-properties result in assay [2] was “interesting and strong Umami-properties”.
As for `CC(C)[C@H]1CC[C@H](C)C[C@H]1NC(=O)C1CC1` [(12), Cyclopropanecarboxylic acid-((1R,2R,5S)-2-isopropyl-5-methyl-cyclohexyl)amide], in assay [2], the Umami-properties result is “interesting and strong Umami-properties”.
For the compound `O=C(NC1CCCCC1)C1CC1` [Cyclopropanecarboxylic acid cyclohexyl amide], the taste rating entry in assay [2] (tasting in own investigations) is on record as “taste-neutral”. Moreover, the “creating or enhancing of an Umami taste impression” value in assay [3] was “no creating or enhancing of an Umami taste impression could be verified”.
`CC/C=C\CC/C=C/C(=O)NC1CC1` [N-cyclopropyl-E2,Z6-nonadiene amide]: the sensory impression result in assay [4] is given as “effect similar to MSG”.
Take `CCCCC/C=C\CC/C=C/C(=O)NCC` [N-ethyl-E2,Z6-dodecadiene amide]: the sensory impression result in assay [4] is “effect similar to MSG”.
As to `CC/C=C\CC/C=C/C(=O)NCC` [N-ethyl-E2,Z6-nonadiene amide], the sensory impression entry in assay [4] is “effect similar to MSG”.
